Measured values: patent US20210275493A1, “IMMUNO-ONCOLOGY THERAPY USING ISOFLAVONE COMPOUNDS” (NOXOPHARM LIMITED, priority 2019, published 2021)
Entries after “also recorded” stand apart in the source; their conditions may differ.

Legend:
[1] = test system: A549 lung adenocarcinoma spheroids with PBMCs; assay: A549 spheroid PBMC co-culture: microscopy and FACS; assay type: cell-based, human
Procedure: (§1) Spheroids were generated using the liquid overlay technique. Therefore, a 96 well cell culture plate (Greiner) was precoated with 1.5% (w/v) agarose. For this, 0.75 g of agarose was diluted in 50 ml PBS and boiled for 15 min in a pressure cooker at full pressure, followed by another 10 min at lowest pressure level. 50 μl of agarose solution was added to each well of the 96 well plate and allowed to cool down at RT (under a cell culture hood). Tumor cells were trypsinized and adjusted to a cell suspension of 25.000 cells/ml in medium (RPMI 1640, 10% FCS, 1% penicillin/streptomycin). The outer wells of the 96 well plates were filled with PBS, and the remaining wells were filled with 200 μl cell suspension. Cell aggregation was triggered by centrifugation of the plate at 500× g, 5 min, RT. Plates were then maintained for 5 days in an incubator (37° C., humidified atmosphere). Medium was changed every two days by careful aspiration. Spheroid size was acquired with a Carl Zeiss Axiovert microscope and diameters were determined using AxioVision 40 software.
(§2) PBMCs were isolated from buffy coats (DRK-Blutspendedients Baden-Würtemberg-Hessen, Institut für Transfusionsmedizin and Immunhämatologie, Frankfurt am Main, Germany) using Bicoll-Hypaque gradients. Two 50 ml Leukosep® tubes (Greiner) per buffy coat were filled with 15 ml lymphocyte separation medium (Sigma Aldrich) and centrifuged at 1000×g, 1 min, RT, to place the solution below the membrane. Afterwards 30 ml human blood from buffy coats was added, tubes were filled up to 50 ml with PBS/2 mM EDTA solution, and centrifuged at 500×g, 45 min, RT without break. After density gradient centrifugation, the intermediate white layer composed of mononuclear cells was transferred into a fresh sterile 50 ml tube and washed twice with PBS/2 mM EDTA. After RBC lysis (RBC lysis buffer: 135 mM NH4Cl, 10 mM NaHCO3, 0.1 mM EDTA; for 4 min at RT, stop with PBS) cells were diluted in RPMI 1640 medium (+10% FCS, 1% penicillin/streptomycin) at 2×10^6 cells/ml.
(§3) PBMCs were activated with 25 μl/ml CD3/CD28 T cell activator cocktail (StemCell Technologies), and 50.000 pre-activated PBMCs/well were added to spheroids. Afterwards, co-cultures were stimulated with 1 μM or 10 μM idronoxil or DMSO for 3 days. After three days, samples were either harvested for downstream analysis or treated again with 1 μM or 10 μM idronoxil or DMSO±10 μg/ml anti-PD-1 antibody (BioXCell) or the isotype control for another 3 days. Spheroid size was acquired with a Carl Zeiss Axiovert microscope and diameters were determined using AxioVision 40 software. Spheroids were harvested by transferring 5 spheroids of each group into FACS tubes (BD Biosciences), followed by centrifugation (500× g, 5 min, 4° C.). After removing the supernatant, 100 μl Accutase (Sigma Aldrich) was added to the spheroids, followed by 15 min incubation at 37° C. and generation of single cell suspensions by shearing the cell suspension repeatedly trough pipetting using 100 μl filter pipette tips. After centrifugation (500×g, 5 min, 4° C.) and removal of supernatant, cells were blocked with 80 μl of 0.5% BSA/PBS and 2 μl FcR-blocking reagent (Miltenyi Biotec) for 15 min on ice. Thereafter, cells were stained with an antibody mix consisting of anti-human CD4 PE-CF594, anti-human CD8 APC-H7, anti-human TCRab FITC, anti-human CD33 BV510, anti-human CD45 AF700, anti-human CD279 APC, and anti-human CD274 BV421 (each from BD Biosciences) antibodies for 20 min on nice in the dark. After washing with 500 μl FACS Flow (BD Biosciences), cells were resuspended in 300 μl FACS Flow, 20 μL absolute count standard (Bangs Laboratory) were added to each sample, and samples were acquired using an LSR II/Fortessa flow cytometer (BD Biosciences). All Antibodies were previously titrated to determine optimal concentrations. Antibody-capturing CompBeads (BD Biosciences) were used to create the multi-color panel compensation matrix. […]

[2] = test system: NPC (C17/NPC43+ve) cells, C17 spheroid; assay: 3D tumor spheroid apoptosis imaging (CellEvent Caspase-3/7); assay type: cell-based
Procedure: (§4) For the generation of tumor spheroids in 3D, 200 μL/well of cell suspension in culture medium was seeded at cell densities of 20,000 cells/well. NPC (C17/NPC43+ve) cells were dispensed into Nunclon Sphera 96 wells plate (Thermo Fisher Scientific). The Nunclon Sphera surface was designed to cause minimal cell attachment with minimal extracellular matrix protein binding to the plate surfaces. Plates were incubated at 37° C. and 5% CO2 in RPMI supplemented with FBS and ROCK inhibitor.
To mimic in vivo conditions, the cytotoxicity of idronoxil on NPC cells using three-dimensional (3D) tumor cultures was examined. The effect of increasing concentrations of idronoxil was monitored on apoptosis using fluorescent probes (non-toxic CellEvent Caspase-3/7 Green and LysoTracker Deep Red) in combination with bright-field microscopy to perform persistent real-time spheroid imaging. […] When LysoTracker was added to the spheroids, the staining pattern was complementary to that of CellEvent, with the LysoTracker constantly accumulating in the outer and presumably metabolically active layers of the spheroids.

[3] = Clinical examples: plasma concentration after daily dosing; assay type: in vivo, human; details: 800 mg daily dosage for a period of 7 days
Procedure: An individual presents with metastatic castration resistant prostate cancer. […] The individual has not been prior treated with an […]. The individual is given 800 mg daily dosage of idronoxil for a period of 7 days to establish a plasma concentration of 350 ng/mL of idronoxil. The individual is then administered with an anti-PD-1 antibody according to the product information. The dosage cycle is repeated twice and the individual is assessed for response to anti PD-1 therapy.
An individual presents with advanced melanoma, having been assessed at 12 weeks from first administration of an anti-CTLA-4 antibody as having stable disease and not having achieved a partial response. The individual is given 800 mg daily dosage of idronoxil for a period of 7 days to establish a plasma concentration of 350 ng/mL of idronoxil. The individual is then administered with an anti-CTLA-4 antibody according to the product information. The dosage cycle is repeated twice and the individual is assessed for response to anti-CTLA-4 therapy.

[4] = test system: T cells infiltrating C17/NPC43+ve spheroids; assay: Flow cytometry of spheroid-infiltrating T cells (IN/OUT) in NPC spheroid/PBMC coculture; assay type: cell-based
Procedure: (§5) For flow cytometry analyses, 8 wells/condition were seeded. OUT and IN compartments were isolated by first pooling the 8 cocultures wells in eppendorf tubes. Spheroids were gently resuspended and left to sediment to the bottom of the tubes. Supernatant cell suspension constituted the non-infiltrating immune cells (=OUT). These steps were repeated twice with Phosphate Buffer Saline (PBS) in order to separate the spheroids from the non-infiltrating immune cells. Spheroids were then trypsinized to obtain a single cell suspension (=IN) and further analyzed by flow cytometry.
Differences in quantitative variables were analyzed by the Mann-Whitney U test when comparing 2 groups. A p value<0.05 was considered as statistically significant.
(§6) The interactions between tumor spheroids and PBMCs through heterotypic cocultures was explored. Spheroids were generated from an NPC cell line cocultured with PBMCs obtained from healthy donors that were HLA-matched whenever possible. After coculture, lymphocyte tumor infiltration and tumor cell apoptosis were measured. The cellular compositions within infiltrated tumor spheroids by mechanically separating infiltrating cells (IN) and cells remaining in the medium (OUT) were studied. A description of the coculture experimental protocol is illustrated in FIG. 1.
These findings support the use of idronoxil to induce immunomodulatory responses, and in combination with conventional chemotherapies, enhance antitumor immunity. […] Finally, additionally to the above findings the inventors detected a significant reduction in PD1^+ expression in total infiltrating memory cells compared to DMSO controls (mean 48.57±5.117 vs. mean 62.06±3.066; p=0.0086; FIG. 3). In contrast, significant up-regulation in PD1^+ expression in naïve infiltrated cells upon idronoxil treatment as compared to DMSO (mean 62.10±7.049 vs. mean 43.57±3.870; p=0.0017) was found.

NPC cell lines = assay: In vitro exposure of NPC cell lines: T-cell chemokine expression; assay type: cell-based
[5] = test system: MCF-7 mammary carcinoma spheroids with PBMCs; assay: MCF-7 spheroid PBMC co-culture: microscopy and FACS; assay type: cell-based, human
Procedure: as §1, §2, §3

[6] = test system: NPC cell line spheroids cocultured with PBMCs; assay: Coculture of NPC tumor spheroids and PBMCs: PBMC infiltration; assay type: cell-based
Procedure: as §4, §5, §6
An increase in PBMCs infiltration in the tumor spheroids upon treatment was detected as early as 2 hours after the beginning of the experiment, while the number of infiltrated cells remained constant in the controls (DMSO) over 72 hours of coculture. […] Moreover, the CellEvent staining was performed on the coculture to confirm the induction of apoptosis and observed that spheroid infiltration was proportional to an active apoptosis process in tumor cells. […]

For `Oc1ccc(C2=Cc3ccc(O)cc3OC2)cc1` [idronoxil, 2H-1-Benzopyran-7-0,1,3-(4-hydroxyphenyl)], the 3D spheroid size ([1]; 1 μM, day 6) was “reduced”, the 3D spheroid size ([1]; 10 μM, day 3) was “reduces” and the “immune activation (cluster formation)” value ([1]; 10 μM, day 3) was “induces or maintains”. For the same compound, the “expression of PD1 on CD8+ T cells” value ([1]; 10 μM, day 3, FACS) was “reduced”, the “expression of PDL1 on myeloid cells” value ([1]; 10 μM, day 3, FACS) was “reduced” and the “immune activation (cluster formation)” value ([1]; 10 μM, day 6) was “maintains”. For the same compound, the “invasion of the cells (into agarose)” value ([1]; 10 μM, day 6) was “reduced; also recorded: prevents”, the spheroid size ([1]; 10 μM, day 6) was “reduced” and the “expression of PD1 on both CD4+ and CD8+ T cells” value ([1]; 10 μM, day 6, FACS) was “reduces”. For the same compound, the “expression of PDL1 on myeloid cells” value ([1]; 10 μM, day 6, FACS) was “reduces”, the immune cell infiltrates ([1]; 10 μM, day 6, FACS) was “increased” and the “IC50 values, spheroid-derived cells in 3D versus 2D conditions” value ([2]; 3D vs 2D) was “comparable”. The IC50 ([2]; C17 spheroids, 3D culture, apoptosis by CellEvent Caspase-3/7, read-out: IC50 (3D CellEvent dose-response curve)) was 2100 nM, the “intensity of C17 spheroid staining with CellEvent” value ([2]; increasing concentrations of idronoxil) was “proportional to idronoxil concentrations” and the “plasma concentration of idronoxil” value [3] was 350 ng/mL. The “double-positive (DP) T cells in the tumor structure” value ([4]; CD3+ populations IN vs OUT, 72 hours) was “significant increase”, the “PD1+ expression in naïve infiltrated cells (mean)” value ([4]; DMSO control 43.57±3.870, p=0.0017) was 62.10±7.049 and the “PD1+ expression in total infiltrating memory cells (mean)” value ([4]; DMSO control 62.06±3.066, p=0.0086) was 48.57±5.117. The “proportions of CD45RO+ CD27+ memory cells among infiltrating DP T cells” value ([4]; compared to control) was “decreased proportions”, the “proportions of CD45RO- CD27+ naïve cells among infiltrating DP T cells” value ([4]; compared to control) was “increased proportions” and the “CD62L expression of tumor-infiltrating DP T cells” value ([4]; compared to control, CCR7 not reduced) was “pronounced reduction”. For the same compound, the “expression of T-cell chemokines” value (NPC cell lines) was “expression of the T-cell chemokines CXCL8, 9 and 10”, the “expression of PD1 on CD4+ T cells” value ([5]; 10 μM, day 3, FACS) was “reduces” and the “expression of PDL1 on myeloid cells” value ([5]; 10 μM, day 3, FACS) was “reduces”. For the same compound, the “number of myeloid cells” value ([5]; 10 μM, day 3, FACS) was “reduces”, the 3D spheroid size ([5]; 10 μM, day 6) was “reduced” and the “immune function of the cells (cluster formation)” value ([5]; 10 μM, day 6) was “maintained”. For the same compound, the “number of tumor cells” value ([5]; 10 μM, day 6, FACS) was “reduces”, the 3D spheroid size ([5]; day 3) was “reduced” and the “immune activation (cluster formation)” value ([5]; day 3) was “induced or maintained”. For the same compound, the “expression of PD1 on both CD4+ and CD8+ T cells” value ([5]; day 6, especially at 10 μM, FACS) was “reduces”, the “PDL1 expression by myeloid cells” value ([5]; day 6, idronoxil in general, FACS) was “strongly reduces” and the “time at which increase in PBMCs infiltration was detected” value ([6]; after the beginning of the experiment) was 2 h. For the same compound, the “idronoxil-induced PBMC migration upon blockade of CXCL10” value ([6]; neutralizing antibodies added to tumor spheroid cultures) was “significantly reduced” and the “influx of PBMC into the spheroids” value ([6]; vs DMSO control, up to 72 hours of coculture) was “significantly increased”.
